Results from paper PMC9486809, “Exploring the Surface of the Ectodomain of the PD-L1 Immune Checkpoint with Small-Molecule Fragments” (ACS Chemical Biology, 2022).
Read-outs that look alike come from different tables or passages of the source.

Experiments:
PD-L1 [1] = molecular target: T1, PD-L1 (Homo sapiens, UniProt Q9NZQ7); assay: biochemical; design: gene CD274; conditions: read-out: DSF (°C)
Protocol: Fragments were screened in both techniques as singletons. […] The fragments were tested at a final concentration of 0.1 mM. […] DSF hits were defined as fragments, resulting in an increase or decrease in melting point of PD-L1 by at least 0.5 °C. […] Having the library in hand, we carried out screening using differential scanning fluorimetry and 1D NMR techniques. Previously, the fragment-based approach with a large library of compounds (>13 000) was tested on the PD-L1 V1 domain.[33] […] Therefore, instead of using a large fragment library, we assembled a focused library of fragments containing the biphenyl core extracted from known inhibitors. The obtained fragments were decorated with different substituents to test how these variations will affect the binding of biphenyl. The expression and purification protocol relate to work on PD-L1-short published earlier by us. Briefly, Escherichia coli strain BL21 (DE3) was transformed with a pET-21b plasmid carrying the PD-L1-long gene (amino acids 18–239). The bacteria were cultured in LB at 37 °C until OD600 nm of 0.8 when the recombinant protein production was induced with 1 mM IPTG. The protein expression was carried out at 37 °C for 5 h. Next, bacteria cells were harvested, and the pellet was frozen at −20 °C. […]

PD-L1 [2] = molecular target: T1, PD-L1; assay: 1H NMR; KD stated (data not shown); format: binding; design: gene CD274; ectodomain, PD-L1-long (amino acids 18–239); conditions: cited from earlier work
PD-L1 [3] = molecular target: T1, PD-L1; assay: biochemical; design: gene CD274; ectodomain, PD-L1-long (amino acids 18–239); Differential scanning fluorimetry, melting temperature shift of PD-L1 ectodomain (PD-L1-long); conditions: read-out: DSF (°C)
Protocol: Fragments were screened in both techniques as singletons. […] The fragments were tested at a final concentration of 0.1 mM. […] DSF hits were defined as fragments, resulting in an increase or decrease in melting point of PD-L1 by at least 0.5 °C. […] Having the library in hand, we carried out screening using differential scanning fluorimetry and 1D NMR techniques. Previously, the fragment-based approach with a large library of compounds (>13 000) was tested on the PD-L1 V1 domain.[33] […] Therefore, instead of using a large fragment library, we assembled a focused library of fragments containing the biphenyl core extracted from known inhibitors. The obtained fragments were decorated with different substituents to test how these variations will affect the binding of biphenyl. The expression and purification protocol relate to work on PD-L1-short published earlier by us. Briefly, Escherichia coli strain BL21 (DE3) was transformed with a pET-21b plasmid carrying the PD-L1-long gene (amino acids 18–239). The bacteria were cultured in LB at 37 °C until OD600 nm of 0.8 when the recombinant protein production was induced with 1 mM IPTG. The protein expression was carried out at 37 °C for 5 h. Next, bacteria cells were harvested, and the pellet was frozen at −20 °C. […] Inclusion bodies were collected by centrifugation, suspended in 1× PBS, and then sonicated to finally collect them again by centrifugation. Then, the inclusion bodies were washed twice with 50 mM Tris-HCl, pH 8.0, containing 200 mM NaCl, 10 mM EDTA, 10 mM 2- mercaptoethanol, and 0.5% Triton X-100, followed by a single wash with the same buffer without Triton X-100.

PD-L1 [4] = molecular target: T1, PD-L1; assay: 1H-15N HMQC NMR, w-AIDA-NMR KD, 1H NMR; format: binding; design: gene CD274; ectodomain, PD-L1-long (amino acids 18–239); PD-L1-short in 1H-15N HMQC
PD-L1 [5] = molecular target: T1, PD-L1; assay: w-AIDA-NMR KD, 1H-15N HMQC NMR, 1H NMR, DSF; format: binding; design: gene CD274; ectodomain, PD-L1-long (amino acids 18–239); PD-L1-short in 1H-15N HMQC

T1 sequence (Q9NZQ7 18-239): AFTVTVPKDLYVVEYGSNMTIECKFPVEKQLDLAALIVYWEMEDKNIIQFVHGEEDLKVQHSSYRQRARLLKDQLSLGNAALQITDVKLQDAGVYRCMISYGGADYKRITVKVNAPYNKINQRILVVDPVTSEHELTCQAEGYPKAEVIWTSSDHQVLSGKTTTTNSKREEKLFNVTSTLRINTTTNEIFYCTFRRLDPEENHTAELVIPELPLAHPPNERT

ΔTm at 100 µM (PD-L1 [3]) [°C] | Compound | other results
0.3 | Cc1c(CO)cccc1-c1cccc(CO)c1Br [TAH3] | 
0.3 | OCc1cccc(-c2cccnc2)c1Cl [TAH5] | 
0.3 | Nc1c(C(=O)O)cccc1-c1ccccc1 [TAH7] | 
0.3 | COC(=O)c1cccc(-c2ccccc2)c1N [TAH8] | 
0.5 | COC(=O)c1cccc(-c2ccccc2)c1Br [TAH9] | 
0.5 | Cc1c(N)cccc1-c1ccc2c(c1)OCCO2 [TAH16] | 
0.3 | Cc1c(N)cccc1-c1ccccn1 [TAH28] | 
0.1 | Cc1c(N)cccc1-c1ccc(C#N)cc1 [TAH29] | 
0.3 | Cc1c(-c2cccc([N+](=O)[O-])c2C)cccc1[N+](=O)[O-] [TAH34] | 
-1.2 | Cc1c(N)cccc1-c1cccc(N)c1C [TAH35] | Kd (PD-L1 [5]): ~20 mM
0.1 | Cc1c(C#N)cccc1-c1cccc(C#N)c1C [TAH37] | 
0.9 | Cc1c(/C=C/C#N)cccc1-c1ccc2c(c1)OCCO2 [TAH38] | 
0.3 | Cc1c(N)cccc1-c1ccccc1 [TAH39] | 
0.3 | O=C(O)c1cccc(-c2ccccc2)c1Br [TAH40] | 
0.5 | Nc1c(Br)cccc1-c1ccc(CO)cc1 [TAH44] | 
0.3 | Cc1cccc(N)c1-c1ccc2c(c1)OCCO2 [TAH55] | 
0.1 | Nc1c(CO)cccc1-c1ccncc1 [TAH57] | 
0.1 | COc1ccc(-c2cccc(CO)c2N)cc1 [TAH58] | 

The remaining lines, values behind:

Compound | ΔTm at 100 µM (PD-L1 [3]) [°C] | other results
Cc1c(COc2cc(OCc3cccc(C#N)c3)c(CN3C[C@H](O)C[C@@H]3C(=O)O)cc2Cl)cccc1-c1ccc2c(c1)OCCO2 [BMS-1166] |  | ΔTm at 100 µM (PD-L1 [1]): 2.7 °C
CN1CCOc2cc(C#N)ccc21 [STD4] |  | Kd (PD-L1 [2]): 2.21 mM
COC(=O)c1cncc(-c2cccc(CO)c2C)c1 [TAH2] | 0.1 | 
OCc1cccc(-c2ccc3c(c2)OCCO3)c1Cl [TAH4] | 0.5 | Kd (PD-L1 [4]): ~40 mM
Nc1c(CO)cccc1-c1ccc2c(c1)OCCO2 [TAH6] | 0.3 | 
Oc1cccc(-c2cccc(Br)c2)c1 [TAH11] | 0.1 | 
COc1cccc(-c2cccc(O)c2)c1 [TAH14] | 0.5 | 
Cc1c(-c2ccc3c(c2)OCCO3)cccc1N1CCCCC1=O [TAH17] | 0.3 | 
O=C1CCc2cc(-c3ccc4c(c3)OCCO4)ccc21 [TAH30] | 0.1 | 
Oc1cccc(-c2cccc(F)c2)c1 [TAH41] | 1.1 | 
Nc1c(-c2ccc3c(c2)OCCO3)cccc1-c1ccc2c(c1)OCCO2 [TAH46] | 0.5 | 
Cc1c(-c2ccc(CO)cc2)cccc1-c1ccc(CO)cc1 [TAH50] | 0.3 | 
Cc1ccc(-c2ccc3c(c2)OCCO3)c(N)c1 [TAH53] | 0.7 | 
CNc1cccc(-c2ccc3c(c2)OCCO3)c1 [TAH56] | 0.1 | 
Nc1c(Br)cccc1-c1ccc2c(c1)OCCO2 [TAH59] | 0.3 | 
Cc1cc(Br)cc(-c2ccc3c(c2)OCCO3)c1 [TAH60] | 0.3 | 
Cc1c(CO)cccc1-c1cccc2c1OCCN2C [TAH61] | -1.1 | 
